Laboratory results reported in patent US9518046B2 (Calitor Sciences, LLC, priority 2015, dated 2016).

Columns and labels:
[1] = Pharmacokinetics after intravenous and oral administration in dogs; type: in vivo; details: Dog; iv dosing 1 mg/kg
Procedure: (§1) The LC/MS/MS system used in the analysis consists of an Agilent 1200 Series vacuum degasser, binary pump, well-plate autosampler, thermostatted column compartment, the Agilent G6430 Triple Quadrupole Mass Spectrometer with an electrosprayionization (ESI) source. Quantitative analysis was carried out using MRM mode. The parameters for MRM transitions are in the Table A.
(§2) An Agilent XDB-C18, 2.1×30 mm, 3.5 M column was used for the analysis. 5 L of the samples were injected. Analysis condition: The mobile phase was 0.1% formic acid in water (A) and 0.1% formic acid in methanol (B). The flow rate was 0.4 mL/min. And the gradient of Mobile phase was in the Table B.
(§3) Alternatively, an Agilent 6330 series LC/MS/MS spectrometer equipped with G1312A binary pumps, a G1367A autosampler and a G1314C UV detector were used in the analysis. An ESI source was used on the LC/MS/MS spectrometer. The analysis was done in positive ion mode as appropriate and the MRM transition for each analyte was optimized using standard solution. A Capcell MP-C18 100×4.6 mm I.D., […] column (Phenomenex, Torrance, Calif., USA) was used during the analysis. The mobile phase was 5 mM ammonia acetate, 0.1% MeOH in water (A): 5 mM ammonia acetate, 0.1% MeOH in acetonitrile (B) (70:30, v/v). The flow rate was 0.6 mL/min. Column was maintained at ambient temperature. 20 μL of the samples were injected.
(§4) The compounds disclosed herein are assessed in pharmacokinetic studies in mice, rats, dogs or monkeys. The compounds are administered as a water solution, 2% HPMC+1% TWEEN®80 in water solution, 5% DMSO+5% solutol in saline, 4% MC suspension or capsule. For the intravenous administration, the animals are generally given at 1 or 2 mg/kg dose. For the oral (p.o.) dosing, mice and rats are generally given 5 or 10 mg/kg dose, and dogs and monkeys are generally given 10 mg/kg dose. […] The plasma solutions are collected, stored at −20° C. or −70° C. until analyzed by LC/MS/MS as described above.

[2] = Pharmacokinetics after intravenous and oral administration in mice; type: in vivo; details: Mouse; iv dosing 1 mg/kg
Procedure: as §1, §2
as §3, with “The mobile phase was 5 mM ammonia acetate, 0.1% MeOH in water (A): 5 mM ammonia acetate, 0.1% MeOH in acetonitrile (B) (70:30, v/v). The flow rate was 0.6 mL/min. Column was maintained at ambient temperature. 20 μL of the samples were injected.” left out
The compounds disclosed herein are assessed in pharmacokinetic studies in mice, rats, dogs or monkeys. […] The plasma solutions are collected, stored at −20° C. or −70° C. until analyzed by LC/MS/MS as described above.

[3] = Pharmacokinetics after intravenous and oral administration in monkeys; type: in vivo; details: Monkey; iv dosing 1 mg/kg
Procedure: as §1, §2, §3, §4

[4] = Pharmacokinetics after intravenous and oral administration in rats; type: in vivo; details: for CL/F / bioavailability: Rats; for CL/F: iv dosing, dose 1 mg/kg (0.5 for Ex. 1, 10, 11, 35; 0.48 for Ex. 24); for AUC(0-t) / half-life / Vd / bioavailability: rat, plasma; for AUC(0-t) / half-life / Vd: iv, 1 mg/kg; for Vd: read-out: Vss; for bioavailability: oral (p.o.) generally 5 or 10 mg/kg versus iv dosing
Outline: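 Dosing used solution, suspension or capsule formulations: 1 or 2 mg/kg IV in all species; PO 5 or 10 mg/kg in mice and rats, 10 mg/kg in dogs and monkeys. Plasma sampled from 0.083 or 0.25 h up to 24 h post-dose; concentrations determined by LC/MS/MS in MRM mode.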

PI3K (p110δ/p85α) (h) = target: T1, PI3K (p110δ/p85α) (h) (Homo sapiens, UniProt O00329); assay: PI3K (p110δ/p85α) (h) non-radioactive HTRF kinase assay; type: biochemical; details: Kinase inhibition data; performed at Millipore UK Ltd
T1 construct: purchased Millipore UK Ltd
Procedure: (§5) The above assay procedure can be used to determine the IC50 for inhibition and/or the inhibition constant, Ki.
PI3K (p110δ/p85α) (h) [Non-Radioactive Assay]
(§6) PI3K (p110δ/p85α) (h) is incubated in assay buffer containing 10 μM phosphatidylinositol-4, 5-bisphosphate and MgATP (concentration as required). The reaction is initiated by the addition of the MgATP mix. After incubation for 30 minutes at room temperature, the reaction is stopped by the addition of stop solution containing EDTA and biotinylated phosphatidylinositol-3,4,5-trisphosphate. Finally, detection buffer is added, which contains europium-labelled anti-GST monoclonal antibody, GST-tagged GRP1 PH domain and streptavidin-allophycocyanin. The plate is then read in timeresolved fluorescence mode and the homogenous time-resolved fluorescence (HTRF) signal is determined according to the formula HTRF=10000×(Em665 nm/Em620 nm).
(§7) The kinase assays described herein were performed at Millipore UK Ltd, Dundee Technology Park, Dundee DD2 1SW, UK.

PI3K (h) p110β/p85α = target: T2, PI3K (h) p110β/p85α (Homo sapiens, UniProt P42338); assay: PI3K (p110β/p85α) (h) non-radioactive HTRF kinase assay; type: biochemical; details: Kinase inhibition data; performed at Millipore UK Ltd
T2 construct: purchased Millipore UK Ltd

[5] = Compound stability in rat liver microsomes; type: in vitro ADME; details: for CLint scaled at 5 μM: liver microsomes, pH 7.4, in vivo CLint extrapolated from rat liver microsome incubation; for half-life at 5 μM: rat liver microsomes 0.5 mg protein/mL, compound 5 μM, NADPH 1.0 mM, pH 7.4, 37° C., read-out: Rat T1/2
Procedure: (§8) Human or rat liver microsomes incubations were conducted in duplicate in polypropylene tubes. The typical incubation mixtures consisted of human or rat liver microsomes (0.5 mg protein/mL), compounds of interest (5 μM) and NADPH (1.0 mM) in a total volume of 200 μL potassium phosphate buffer (PBS, 100 mM, pH 7.4). Compounds were dissolved in DMSO and diluted with PBS such that the final concentration of DMSO was 0.05%. The enzymatic reactions were commenced with the addition of protein after a 3-min preincubation and incubated in a water bath open to the air at 37° C. Reactions were terminated at various time points (0, 5, 10, 15, 30, 60 min) by adding equal volume of ice-cold acetonitrile. The samples were stored at −80° C. until LC/MS/MS assays.
(§9) The concentrations of compounds in the incubation mixtures of human or rat liver microsomes were determined by a LC/MS/MS method. The ranges of the linearity in the concentration range were determined for each tested compounds.
(§10) A parallel incubation was performed using denatured microsomes as the negative control, and reactions were terminated at various time points (0, 15, 60 min) after incubation at 37° C.
(§11) Dextromethorphan (70 μM) was selected as the positive control, and reactions were terminated at various time points (0, 5, 10, 15, 30, 60 min) after incubation at 37° C. Both positive and negative control samples were included in each assay to ensure the integrity of the microsomal incubation system.
(§12) The concentrations of compounds in human or rat liver microsome incubations were plotted as a percentage of the relevant zero time point control for each reaction. The in vivo CLint were extrapolated (ref.: Naritomi, Y.; Terashita, S.; Kimura, S.; Suzuki, A.; Kagayama, A.; and Sugiyama, Y.; Prediction of human hepatic clearance from in vivo animal experiments and in vitro metabolic studies with liver microsomes from animals and humans. Drug Metab. Dispos., 2001, 29: 1316-1324).

PI3K (p120γ) (h) = target: T3, PI3K (p120γ) (h) (Homo sapiens, UniProt P48736); assay: PI3K (p120γ) (h) non-radioactive HTRF kinase assay; type: biochemical; details: Kinase inhibition data; performed at Millipore UK Ltd
T3 construct: purchased Millipore UK Ltd
Procedure: as §5
PI3K (p120γ) (h) [Non-Radioactive Assay]
as §6, with “(p120γ)” for “(p110δ/p85α)”, “M” for “μM”
as §7

[6] = Compound stability in human liver microsomes; type: in vitro ADME; details: for half-life at 5 μM: human liver microsomes 0.5 mg protein/mL, compound 5 μM, NADPH 1.0 mM, pH 7.4, 37° C., read-out: Human T1/2; for CLint scaled at 5 μM: liver microsomes, pH 7.4, in vivo CLint extrapolated from human liver microsome incubation
Procedure: as §8, §9, §10, §11, §12

PI3K (p110α/p85α) (h) = target: T4, PI3K (p110α/p85α) (h) (Homo sapiens, UniProt P42336); assay: PI3K (p110α/p85α) (h) non-radioactive HTRF kinase assay; type: biochemical; details: Kinase inhibition data; performed at Millipore UK Ltd
T4 construct: purchased Millipore UK Ltd
Procedure: as §5
PI3K (p110α/p85α) (h) [Non-Radioactive Assay]
as §6, with “(p110α/p85α)” for “(p110δ/p85α)”, “phosphatidylinositol 4,5-bisphosphate” for “phosphatidylinositol-4, 5-bisphosphate”, “ATP solution.” for “MgATP mix.”, “streptavidin allophycocyanin.” for “streptavidin-allophycocyanin.”
as §7

T2 sequence (P42338 whole entry): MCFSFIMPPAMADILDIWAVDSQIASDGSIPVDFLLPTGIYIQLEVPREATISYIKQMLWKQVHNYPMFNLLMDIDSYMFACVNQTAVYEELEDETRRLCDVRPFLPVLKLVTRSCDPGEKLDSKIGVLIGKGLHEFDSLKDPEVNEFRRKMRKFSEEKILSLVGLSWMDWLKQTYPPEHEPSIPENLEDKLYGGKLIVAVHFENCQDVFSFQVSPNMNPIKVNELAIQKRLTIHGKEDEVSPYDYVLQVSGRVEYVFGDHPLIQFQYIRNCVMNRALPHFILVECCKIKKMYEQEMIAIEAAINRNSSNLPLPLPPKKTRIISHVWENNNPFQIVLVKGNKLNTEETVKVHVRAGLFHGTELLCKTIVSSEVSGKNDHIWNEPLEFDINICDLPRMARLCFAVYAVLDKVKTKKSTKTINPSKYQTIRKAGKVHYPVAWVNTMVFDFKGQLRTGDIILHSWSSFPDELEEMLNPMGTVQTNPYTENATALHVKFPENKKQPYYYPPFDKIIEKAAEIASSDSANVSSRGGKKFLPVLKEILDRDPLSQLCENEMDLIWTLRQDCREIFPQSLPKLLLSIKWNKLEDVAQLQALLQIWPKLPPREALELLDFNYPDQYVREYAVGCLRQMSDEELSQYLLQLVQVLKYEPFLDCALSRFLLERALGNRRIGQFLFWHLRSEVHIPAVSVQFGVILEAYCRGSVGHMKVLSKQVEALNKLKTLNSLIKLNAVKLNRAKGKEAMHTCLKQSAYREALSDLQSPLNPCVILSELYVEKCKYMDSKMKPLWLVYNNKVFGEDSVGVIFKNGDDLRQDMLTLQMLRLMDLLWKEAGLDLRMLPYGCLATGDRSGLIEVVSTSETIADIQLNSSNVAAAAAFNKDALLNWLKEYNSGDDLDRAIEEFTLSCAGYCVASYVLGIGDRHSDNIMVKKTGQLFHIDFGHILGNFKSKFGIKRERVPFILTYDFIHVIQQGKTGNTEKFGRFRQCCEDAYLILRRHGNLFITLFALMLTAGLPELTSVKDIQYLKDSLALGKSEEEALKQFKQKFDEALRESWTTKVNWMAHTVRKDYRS
T2 sequence (P27986 whole entry partner): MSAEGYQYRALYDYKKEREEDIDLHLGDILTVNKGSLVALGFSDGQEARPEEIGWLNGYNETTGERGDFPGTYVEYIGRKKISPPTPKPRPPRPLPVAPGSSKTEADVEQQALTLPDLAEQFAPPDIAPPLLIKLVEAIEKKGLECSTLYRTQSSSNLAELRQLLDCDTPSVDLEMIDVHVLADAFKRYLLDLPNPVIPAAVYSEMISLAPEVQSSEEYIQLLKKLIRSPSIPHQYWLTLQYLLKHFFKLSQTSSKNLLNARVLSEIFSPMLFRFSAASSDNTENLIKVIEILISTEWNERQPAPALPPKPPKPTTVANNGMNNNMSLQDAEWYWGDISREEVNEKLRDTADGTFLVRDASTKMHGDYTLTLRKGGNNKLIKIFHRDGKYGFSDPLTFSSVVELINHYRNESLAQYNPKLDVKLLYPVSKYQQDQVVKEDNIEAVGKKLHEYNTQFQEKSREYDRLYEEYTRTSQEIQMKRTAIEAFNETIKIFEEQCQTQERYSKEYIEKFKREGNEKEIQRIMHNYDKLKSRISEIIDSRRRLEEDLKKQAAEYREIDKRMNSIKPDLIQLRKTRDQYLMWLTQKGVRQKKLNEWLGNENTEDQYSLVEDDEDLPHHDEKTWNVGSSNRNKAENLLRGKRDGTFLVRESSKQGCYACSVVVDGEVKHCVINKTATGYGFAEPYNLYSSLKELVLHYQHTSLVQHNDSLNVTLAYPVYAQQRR
T1 sequence (O00329 whole entry): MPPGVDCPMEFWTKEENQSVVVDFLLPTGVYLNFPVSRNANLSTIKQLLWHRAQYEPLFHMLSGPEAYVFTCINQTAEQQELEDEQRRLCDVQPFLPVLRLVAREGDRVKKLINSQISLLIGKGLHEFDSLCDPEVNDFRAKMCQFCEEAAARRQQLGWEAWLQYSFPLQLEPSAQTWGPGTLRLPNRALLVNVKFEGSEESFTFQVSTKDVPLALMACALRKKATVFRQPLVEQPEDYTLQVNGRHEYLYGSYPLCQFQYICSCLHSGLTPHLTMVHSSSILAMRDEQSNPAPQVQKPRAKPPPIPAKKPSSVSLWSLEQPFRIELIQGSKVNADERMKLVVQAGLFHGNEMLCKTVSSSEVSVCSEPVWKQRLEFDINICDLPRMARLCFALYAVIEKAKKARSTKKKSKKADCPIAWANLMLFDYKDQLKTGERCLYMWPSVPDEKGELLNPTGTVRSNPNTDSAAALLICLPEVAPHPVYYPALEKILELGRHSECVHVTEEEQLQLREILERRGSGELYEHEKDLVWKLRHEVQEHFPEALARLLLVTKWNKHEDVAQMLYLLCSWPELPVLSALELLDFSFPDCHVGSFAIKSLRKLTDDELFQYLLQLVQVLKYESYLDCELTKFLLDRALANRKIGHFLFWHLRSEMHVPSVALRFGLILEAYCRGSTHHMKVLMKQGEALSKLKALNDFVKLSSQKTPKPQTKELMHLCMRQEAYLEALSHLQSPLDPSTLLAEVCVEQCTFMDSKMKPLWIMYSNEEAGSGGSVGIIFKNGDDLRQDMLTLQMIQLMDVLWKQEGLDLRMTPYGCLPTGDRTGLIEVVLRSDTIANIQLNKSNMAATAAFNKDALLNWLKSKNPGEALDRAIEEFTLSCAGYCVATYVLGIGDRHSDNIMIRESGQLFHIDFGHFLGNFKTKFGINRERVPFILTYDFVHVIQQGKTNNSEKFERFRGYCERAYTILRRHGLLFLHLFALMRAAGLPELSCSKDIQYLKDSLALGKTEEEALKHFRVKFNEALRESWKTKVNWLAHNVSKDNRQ
T1 sequence (P27986 whole entry partner): as the sequence (P27986 whole entry partner) above
T3 sequence (P48736 whole entry): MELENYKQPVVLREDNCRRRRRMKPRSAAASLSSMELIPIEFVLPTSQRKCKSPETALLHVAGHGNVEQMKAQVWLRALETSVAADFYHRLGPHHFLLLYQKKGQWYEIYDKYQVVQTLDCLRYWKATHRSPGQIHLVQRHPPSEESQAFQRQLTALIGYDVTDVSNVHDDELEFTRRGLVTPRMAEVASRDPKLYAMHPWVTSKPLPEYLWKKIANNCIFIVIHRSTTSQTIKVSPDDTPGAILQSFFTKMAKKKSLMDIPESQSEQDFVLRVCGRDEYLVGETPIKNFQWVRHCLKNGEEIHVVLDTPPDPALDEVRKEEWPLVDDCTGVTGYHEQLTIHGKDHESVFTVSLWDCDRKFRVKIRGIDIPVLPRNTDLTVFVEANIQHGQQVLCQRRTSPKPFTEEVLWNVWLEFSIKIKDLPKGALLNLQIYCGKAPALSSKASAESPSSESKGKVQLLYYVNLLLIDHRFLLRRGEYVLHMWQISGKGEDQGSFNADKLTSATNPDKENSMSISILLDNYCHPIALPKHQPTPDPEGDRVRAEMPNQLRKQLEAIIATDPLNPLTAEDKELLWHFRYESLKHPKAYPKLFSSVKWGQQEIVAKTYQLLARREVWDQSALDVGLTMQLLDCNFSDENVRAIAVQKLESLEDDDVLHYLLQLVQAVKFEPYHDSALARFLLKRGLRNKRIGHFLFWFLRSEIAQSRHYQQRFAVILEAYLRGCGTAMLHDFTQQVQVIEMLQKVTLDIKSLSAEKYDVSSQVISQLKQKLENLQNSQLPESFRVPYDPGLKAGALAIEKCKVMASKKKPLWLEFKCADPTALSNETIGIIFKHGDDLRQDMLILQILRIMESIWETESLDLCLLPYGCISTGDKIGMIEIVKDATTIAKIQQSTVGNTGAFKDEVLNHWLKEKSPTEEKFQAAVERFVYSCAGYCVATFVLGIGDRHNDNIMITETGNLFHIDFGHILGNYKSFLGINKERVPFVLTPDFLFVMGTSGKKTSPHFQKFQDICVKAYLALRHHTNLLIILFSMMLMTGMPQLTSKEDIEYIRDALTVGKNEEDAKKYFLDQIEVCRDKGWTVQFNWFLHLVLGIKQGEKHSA
T4 sequence (P42336 whole entry): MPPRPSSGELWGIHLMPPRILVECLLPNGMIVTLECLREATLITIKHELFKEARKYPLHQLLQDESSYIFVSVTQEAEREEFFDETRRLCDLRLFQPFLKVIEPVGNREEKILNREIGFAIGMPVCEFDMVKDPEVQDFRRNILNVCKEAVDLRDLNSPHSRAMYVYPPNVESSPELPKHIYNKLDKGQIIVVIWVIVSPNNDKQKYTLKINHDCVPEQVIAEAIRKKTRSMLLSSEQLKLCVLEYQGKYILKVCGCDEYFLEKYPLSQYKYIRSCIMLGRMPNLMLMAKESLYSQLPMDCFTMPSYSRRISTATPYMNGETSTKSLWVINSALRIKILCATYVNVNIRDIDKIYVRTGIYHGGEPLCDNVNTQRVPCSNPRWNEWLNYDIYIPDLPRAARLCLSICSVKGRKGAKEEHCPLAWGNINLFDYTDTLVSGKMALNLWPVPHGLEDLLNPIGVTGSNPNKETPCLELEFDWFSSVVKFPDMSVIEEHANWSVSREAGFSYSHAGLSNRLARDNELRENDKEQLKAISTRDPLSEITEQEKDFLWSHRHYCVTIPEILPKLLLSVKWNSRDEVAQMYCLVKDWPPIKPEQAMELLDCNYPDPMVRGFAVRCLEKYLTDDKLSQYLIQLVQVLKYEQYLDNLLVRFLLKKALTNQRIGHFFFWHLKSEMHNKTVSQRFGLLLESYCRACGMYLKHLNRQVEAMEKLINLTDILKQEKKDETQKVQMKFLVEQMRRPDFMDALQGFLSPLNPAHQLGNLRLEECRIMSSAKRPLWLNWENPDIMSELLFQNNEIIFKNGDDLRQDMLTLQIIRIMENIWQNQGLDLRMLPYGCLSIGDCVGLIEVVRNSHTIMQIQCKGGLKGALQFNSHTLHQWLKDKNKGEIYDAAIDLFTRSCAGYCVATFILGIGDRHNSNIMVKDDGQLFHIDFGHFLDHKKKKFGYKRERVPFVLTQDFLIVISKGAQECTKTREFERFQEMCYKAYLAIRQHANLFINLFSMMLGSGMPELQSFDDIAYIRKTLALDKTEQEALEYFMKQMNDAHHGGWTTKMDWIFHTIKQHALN
T4 sequence (P27986 whole entry partner): as the sequence (P27986 whole entry partner) above

CL/F [1]	CL/F [2]	CL/F [3]	CL/F [4]	IC50 (PI3K (p110δ/p85α) (h))	IC50 (PI3K (h) p110β/p85α)	CLint scaled at 5 μM [5]	half-life at 5 μM [5]	IC50 (PI3K (p120γ) (h))	half-life at 5 μM [6]	CLint scaled at 5 μM [6]	IC50 (PI3K (p110α/p85α) (h))	AUC(0-t) [4]	half-life [4]	Vd [4]	bioavailability [4]	Structure (SMILES)
			39.3 mL/min/kg	0.016 µM	1.8 µM	15.2 mL/min/kg	2.73 h	0.878 µM	1.11 h	26.2 mL/min/kg	2.19 µM	423 ng·h/mL	0.98 h	2.98 L/kg	96.2%	Cc1noc(-c2c(N)ncnc2N[C@@H](C)c2nc3cccc(-c4cnn(C)c4)c3c(=O)n2C2CC2)n1 [Ex. 66, (S)-2-(1-((6-amino-5-(3-methyl-1,2,4-oxadiazol-5-yl)pyrimidin-4-yl)amino)ethyl)-3-cyclopropyl-5-(1-methyl-1H-pyrazol-4-yl)quinazolin-4(3H)-one]
			5.83 mL/min/kg	0.004 µM	1.18 µM	17.6 mL/min/kg	2.36 h	0.092 µM	1.22 h	23.8 mL/min/kg	1.42 µM	2690 ng·h/mL	1.8 h	0.89 L/kg	70%	Cc1noc(-c2c(N)ncnc2N[C@@H](C)c2nc3cccc(-c4cnn(C)c4)c3c(=O)n2-c2ccccc2)n1 [Ex. 68, (S)-2-(1-((6-amino-5-(3-methyl-1,2,4-oxadiazol-5-yl)pyrimidin-4-yl)amino)ethyl)-5-(1-methyl-1H-pyrazol-4-yl)-3-phenylquinazolin-4(3H)-one]
			65.8 mL/min/kg	0.142 µM	> 3 µM			> 3 µM			> 3 µM	270 ng·h/mL	0.98 h	3.85 L/kg	35.9%	CC[C@H](Nc1ncnc(N)c1-c1nnc(C)o1)c1nc2cccc(-c3cnn(C)c3)c2c(=O)n1C1CC1 [Ex. 72, (S)-2-(1-((6-amino-5-(5-methyl-1,3,4-oxadiazol-2-yl)pyrimidin-4-yl)amino)propyl)-3-cyclopropyl-5-(1-methyl-1H-pyrazol-4-yl)quinazolin-4(3H)-one]

The remaining lines, values behind:

Structure (SMILES)	CL/F [1]	CL/F [2]	CL/F [3]	CL/F [4]	IC50 (PI3K (p110δ/p85α) (h))	IC50 (PI3K (h) p110β/p85α)	CLint scaled at 5 μM [5]	half-life at 5 μM [5]	IC50 (PI3K (p120γ) (h))	half-life at 5 μM [6]	CLint scaled at 5 μM [6]	IC50 (PI3K (p110α/p85α) (h))	AUC(0-t) [4]	half-life [4]	Vd [4]	bioavailability [4]
Cc1nnc(-c2c(N)ncnc2N[C@@H](C)c2nc3cccc(Cl)c3c(=O)n2-c2ccccc2)o1 [Ex. 64, (S)-2-(1-((6-amino-5-(5-methyl-1,3,4-oxadiazol-2-yl)pyrimidin-4-yl)amino)ethyl)-5-chloro-3-phenylquinazolin-4(3H)-one]	1.83 mL/min/kg	18.8 mL/min/kg	7.17 mL/min/kg	28.3 mL/min/kg												
CC[C@H](Nc1ncnc(N)c1-c1nc(C)no1)c1nc2cccc(Cl)c2c(=O)n1C1CC1 [Ex. 4, (S)-2-(1-((6-amino-5-(3-methyl-1,2,4-oxadiazol-5-yl)pyrimidin-4-yl)amino)-propyl)-5-chloro-3-cyclopropylquinazolin-4(3H)-one]	9.67 mL/min/kg		11.6 mL/min/kg	21.5 mL/min/kg												
Cc1nnc(-c2c(N)ncnc2N[C@@H](C)c2nc3cccc(-c4cnn(C)c4)c3c(=O)n2-c2ccccc2)o1 [Ex. 69, (S)-2-(1-((6-amino-5-(5-methyl-1,3,4-oxadiazol-2-yl)pyrimidin-4-yl)amino)ethyl)-5-(1-methyl-1H-pyrazol-4-yl)-3-phenylquinazolin-4(3H)-one]				15 mL/min/kg	0.022 µM	> 3 µM	9.99 mL/min/kg	4.14 h	1.17 µM	2.31 h	12.6 mL/min/kg	> 3 µM	1100 ng·h/mL	1.25 h	1.54 L/kg	83%
Cc1noc(-c2c(N)ncnc2N[C@@H](C)c2nc3cccc(Cl)c3c(=O)n2-c2ccccc2)n1 [Ex. 65, (S)-2-(1-((6-amino-5-(3-methyl-1,2,4-oxadiazol-5-yl)pyrimidin-4-yl)amino)ethyl)-5-chloro-3-phenylquinazolin-4(3H)-one]	6.17 mL/min/kg	31.7 mL/min/kg	15.3 mL/min/kg													
